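Following 48 hours of exposure in 96-well plates, responses at five concentrations were used to interpolate endpoints linearly. Abbreviation: GI50, concentration required for 50% inhibition of growth. TGI denotes the concentration required for complete inhibition of growth.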
Key:
Experiment in all cases: NCI tumour cell line growth inhibition, 48 h
SK-MEL-2 melanoma = tested on: SK-MEL-2 melanoma
OVCAR-8 ovarian = tested on: OVCAR-8 ovarian
MOLT-4 leukemia = tested on: MOLT-4 leukemia
CCRF-CEM leukemia = tested on: CCRF-CEM leukemia
TK-10 renal = tested on: TK-10 renal
UACC-257 melanoma = tested on: UACC-257 melanoma
SF-295 CNS = tested on: SF-295 CNS
UACC-62 melanoma = tested on: UACC-62 melanoma
HCT-15 colon = tested on: HCT-15 colon
HCC-2998 colon = tested on: HCC-2998 colon

Structure (SMILES)	GI50 (SK-MEL-2 melanoma)	TGI (SK-MEL-2 melanoma)	GI50 (OVCAR-8 ovarian)	TGI (OVCAR-8 ovarian)	GI50 (MOLT-4 leukemia)	TGI (MOLT-4 leukemia)	GI50 (CCRF-CEM leukemia)	TGI (CCRF-CEM leukemia)	GI50 (TK-10 renal)	TGI (TK-10 renal)	GI50 (UACC-257 melanoma)	TGI (UACC-257 melanoma)	GI50 (SF-295 CNS)	TGI (SF-295 CNS)	GI50 (UACC-62 melanoma)	TGI (UACC-62 melanoma)	GI50 (HCT-15 colon)	TGI (HCT-15 colon)	TGI (HCC-2998 colon)	GI50 (HCC-2998 colon)
O=C1C=C(NCCO)c2nccc3c2c1nc1ccccc13	27.7 µM	88.2 µM	40 µM	> 100 µM	5.94 µM	> 100 µM	21.3 µM	> 100 µM	18.7 µM	60.8 µM	32.2 µM	> 100 µM	18.5 µM	> 100 µM	13.4 µM	31 µM	18.6 µM	> 100 µM		
Cc1cccc(C)c1NC(=O)CCC(=O)NC(N)=NC#N				> 100 µM		> 100 µM		> 100 µM		> 100 µM		> 100 µM		> 100 µM		> 100 µM		> 100 µM	> 100 µM	
O=C(/C=C/c1ccccc1)c1cccc2ccccc12	2.97 µM	8.3 µM	1.82 µM	3.97 µM	1.43 µM	5.68 µM	2.71 µM	17.8 µM	4.04 µM	14.2 µM	4.13 µM	15.5 µM			3.46 µM	11.8 µM	3.2 µM	13.4 µM	6.81 µM	2.65 µM
CC(=O)[CH-]C(=O)c1ccccc1.CC(=O)[CH-]C(=O)c1ccccc1.Cl.[O-]c1ccnc2ccccc12.[O-]c1ccnc2ccccc12.[Ti+4]	> 100 µM	> 100 µM	> 100 µM	> 100 µM	> 100 µM	> 100 µM	> 100 µM	> 100 µM			> 100 µM	> 100 µM	> 100 µM	> 100 µM	> 100 µM	> 100 µM	> 100 µM	> 100 µM	> 100 µM	> 100 µM
CC1OC(n2cc(C(F)(F)F)c(=O)[nH]c2=O)C=CC1=O (stereo not drawn)		34.6 µM		80 µM		57.2 µM				35.3 µM		38.8 µM		81.5 µM		47.5 µM		47 µM	32.3 µM	
O=C(NC1CC1)c1c(O)[nH]c(=S)[nH]c1=O		> 100 µM		> 100 µM		> 100 µM		> 100 µM		> 100 µM		> 100 µM		> 100 µM		> 100 µM		> 100 µM		
Cc1ccc(S(=O)(=O)OCOS(=O)(=O)c2ccc(C)cc2)cc1		> 100 µM		> 100 µM		> 100 µM		> 100 µM		> 100 µM		> 100 µM		> 100 µM				> 100 µM	> 100 µM	
CC(=Nc1ccc(N(C)C)cc1)c1ccccc1		29.4 µM		> 100 µM		72.1 µM		92.6 µM		40.1 µM				> 100 µM		33.6 µM		37.9 µM	> 100 µM	
Cc1ccc(N(C=O)c2c([N+](=O)[O-])cc([N+](=O)[O-])c3c2=[N+]([O-])CN=3)cc1		42.2 µM		> 100 µM		80.4 µM				78.7 µM		58 µM		> 100 µM		29.8 µM		34.8 µM	43.3 µM	
COC(=O)[C@H](Cc1cn(C)cn1)NC(=O)[C@H](CC(=O)OCc1ccccc1)NC(=O)Nc1cc(C(F)(F)F)cc(C(F)(F)F)c1	3.89 µM	12.6 µM	4.49 µM	16.9 µM	17.1 µM	36.6 µM	9.81 µM	24.7 µM			6.34 µM	19.1 µM	10.9 µM	24 µM			17.9 µM	> 100 µM		
CCC12C=CCN(CCc3c([nH]c4ccccc34)/C=C\1)C2 (stereo not drawn)		> 100 µM				> 100 µM		> 100 µM				> 100 µM		> 100 µM		> 100 µM		> 100 µM	> 100 µM	
CCN(CC)CCNC(=O)c1cccc2c1-c1ccccc1C2=O	> 100 µM	> 100 µM	> 100 µM	> 100 µM			> 100 µM	> 100 µM	> 100 µM	> 100 µM	> 100 µM	> 100 µM	> 100 µM	> 100 µM	> 100 µM	> 100 µM	> 100 µM	> 100 µM	> 100 µM	> 100 µM
COC(=O)C1=CC2C(=O)OC1C1C(=O)NC(=O)C21 (stereo not drawn)				> 100 µM		> 100 µM		> 100 µM		> 100 µM		> 100 µM		> 100 µM		> 100 µM			> 100 µM	
Nc1cccc2c1-c1c(cccc1[N+](=O)[O-])C2=O				> 100 µM		> 100 µM		> 100 µM		> 100 µM		> 100 µM		> 100 µM		> 100 µM		> 100 µM	> 100 µM	
COc1cc(OCc2ccccc2)c2c(CCC(=O)O)cc(=O)oc2c1 (tested in a mixture with another compound)		> 100 µM		> 100 µM		90.4 µM		> 100 µM		96.6 µM		> 100 µM				> 100 µM		> 100 µM	> 100 µM	
N#C/C(=C\c1c(O)cc(O)cc1O)C(N)=O		> 100 µM		> 100 µM		> 100 µM		> 100 µM		> 100 µM		> 100 µM		> 100 µM				> 100 µM	> 100 µM	
COc1ccc(Cn2cc(COc3cc(/C=C/C(=O)c4cc(OC)c(OC)c(OC)c4)ccc3OC)nn2)cc1	8.33 µM	42.1 µM	3.06 µM	> 100 µM	4.67 µM	> 100 µM	3.14 µM	> 100 µM	3.7 µM	26.3 µM	10.3 µM	> 100 µM			4.19 µM	> 100 µM	2.76 µM	> 100 µM	> 100 µM	3.9 µM
O=C(/C=C/c1ccc(Cl)c(Cl)c1)c1ccccc1Cl				11.8 µM		98.4 µM		19.1 µM		47.9 µM		27.7 µM		26.9 µM		25.5 µM		9.97 µM	25.6 µM	
COC(=O)c1c[nH]c2cc(OC(C)C)c(OC(C)C)cc2c1=O	> 100 µM	> 100 µM	> 100 µM	> 100 µM	> 100 µM	> 100 µM	> 100 µM	> 100 µM	> 100 µM	> 100 µM	> 100 µM	> 100 µM			> 100 µM	> 100 µM	> 100 µM	> 100 µM	> 100 µM	> 100 µM
